Measurements reported in US20220378889A1, “NEO-EPITOPE VACCINES AND METHODS OF TREATING CANCER” (Epivax Therapeutics Inc., priority 2019, published 2022).

Assays:
CT26 tumor cells = assay: CT26 tumor growth and survival after vaccination (Example 1); conditions: N=10 mice per group
Experimental: Mice were separated into three groups: 1) PBS control; 2) poly-ICLC (vehicle); 3) ANCER™-selected CT26 Neoantigen Peptides+poly-ICLC. • Group 1: PBS, sc injections at days 5, 8, 12, 15, 19, 22, and 26. • Group 2: poly-ICLC, 50 μg, sc injections at days 5, 8, 12, 15, 19, 22, and 26. • Group 3: 5 μg/ANCER™-selected CT26 Neoantigen Peptide (100 μg total ANCER™-selected CT26 Neoantigen Peptides)+50 μg poly-ICLC, sc injections at days 5, 8, 12, 15, 19, 22, and 26.
All mice (N=10 mice per group) were injected 3*10^5 CT26 tumor cells in 0% Matrigel at day 0. Mice were sacrificed once the tumor volume reached 2,000 mm^3 or at day 45, whichever came first.

[1] = tested on: CT26 murine colon tumor cells; assay: CT26 tumor growth with or without poly-ICLC (Example 13); format: in vivo, BALB/c mice; conditions: day 25 post-tumor implantation; sc twice per week for three weeks from day 4
Experimental: The goal of this experiment was to determine the requirement for the inclusion of the adjuvant poly-ICLC in a peptide vaccine containing ANCER™ selected neoantigens. For this experiment, female BALB/c mice were implanted subcutaneously with 3×10^5 CT26 murine colon tumor cells. Tumor growth was monitored by caliper measurement and mice were sacrificed 45 days after tumor implantation or when tumor volumes reached 2000 mm^3, whichever came first.
Four vaccine groups were tested (n=10 mice/group):
Group 2=PBS with 50 μg poly-ICLC
Group 3=20 ANCER™ selected (uncapped) peptides with 50 μg poly-ICLC
Group 4=20 ANCER™ selected (uncapped) peptides only
Peptide vaccines were comprised of 20 different ANCER™ selected peptides at a concentration of 5 μg/peptide for a total dose of 100 μg peptide per immunization. Mice were immunized subcutaneously in the opposite flank from tumor implantation twice per week for three weeks, starting at day 4 post-tumor implantation.

With poly-ICLC the “mice reaching endpoint (tumor volume of at least 2,000 mm^3) by day 28” value (CT26 tumor cells) was 60% and the “control of tumor growth relative to PBS / poly-ICLC alone” value [1] was “no difference in tumor growth kinetics”.
